# According to US10040838B2, “CRHR2 peptide agonists and uses thereof” (JANSSEN PHARMACEUTICA NV, priority 2008, dated 2018):
# Residues, ends and D or L forms follow the SMILES beside them. *: point of attachment. Succinimide(1-Et,3-yl) = CCN1C(=O)CC(*)C1=O
# Biological target: T1, human CRHR2 (Homo sapiens, UniProt Q13324)
# T1 construct: expressed in transfected cells
# T1 sequence (Q13324 1-411): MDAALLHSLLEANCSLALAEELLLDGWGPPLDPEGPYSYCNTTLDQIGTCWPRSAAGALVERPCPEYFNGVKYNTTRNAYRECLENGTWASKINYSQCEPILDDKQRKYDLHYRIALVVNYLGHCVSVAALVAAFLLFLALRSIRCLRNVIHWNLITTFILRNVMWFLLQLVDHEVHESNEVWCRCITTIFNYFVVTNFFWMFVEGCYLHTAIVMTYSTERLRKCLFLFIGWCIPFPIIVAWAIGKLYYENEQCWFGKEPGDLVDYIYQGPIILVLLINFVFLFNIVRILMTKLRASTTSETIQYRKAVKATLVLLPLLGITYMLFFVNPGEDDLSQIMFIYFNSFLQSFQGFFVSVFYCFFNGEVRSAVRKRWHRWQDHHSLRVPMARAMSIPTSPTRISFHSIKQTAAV
# Assay: cAMP assay in h-CRHR2 transfected SK-N-MC cells
# Assay type: cell-based
# Conditions: Table 13; h-SCP control pA50 minus test compound pA50 within same assay batch
# Description: The concentration required for 50% maximum effect (A50) was 0.4 nM.
# Human CRHR1 (accession number X72304) or CRHR2 (accession number U34587) were cloned into pcDNA3.1/Zeo expression vector and stably transfected into SK-N-MC cells by electroporation. Cells were maintained in MEM w/Earl's Salt with 10% FBS, 50 I.U. penicillin, 50 μg/ml streptomycin, 2 mM L-glutamine, 1 mM sodium pyruvate and 0.1 mM nonessential amino acids, 600 μg/ml G418. Cells were grown at 37° C. in 5% CO2.
# Cells were plated in 96-well tissue culture dishes (Biocoat from BD Biosciences) overnight at 50,000 cell/well. Cells were washed with PBS then resuspended in DMEM F-12 without phenol red, containing 10 μM isobutylmethylxanthine (IBMX). Cells were incubated with the peptides at concentrations ranging from 1 pM to 10 μM for 60 min at 37° Celsius. […] Forskolin (10 μM), a direct stimulant of adenylate cyclase, was used as positive control. The assays were stopped by the addition of 0.5 M HCl and mixing by orbital rotation for 2 h at 4° Celsius.
# To assess the activity of the inventive peptide at the CRHR2, an intracellular cAMP measurement test using a Flash plate radioactive assay (Catalog No. Cus56088; Perkin Elmer, MA, U.S.A.) was employed.
# Transfected SK-N-MC cells were plated in 96-well Biocoat tissue culture dishes (BD Biosciences, San Jose, Calif., U.S.A) overnight at 50,000 cell/well. Cells were first washed with PBS and then suspended with DMEM/F-12 without phenol red, containing […]. Suspended cells were transferred into a 96-well flash plate coated with scintillant fluid. Cells were incubated with peptides ranging from […], for 60 min, at 37° Celsius. Forskolin at 10 μM was used as positive control. After ligand stimulation, cells were lysed by the addition of 0.5M HCl and mixed by orbital rotation for 2 h at 4° Celsius in order to release intracellular cAMP into the media.
# Media containing released intracellular cAMP was transferred to a 96-well flash plate coated with scintillant fluid containing an anti-cAMP antibody. In this assay, intracellular cAMP competes with ^125I-labeled cAMP binding to the antibody. To generate a standard curve, cAMP ranging from 2.5 to 250 pmoles/ml was included in the experiment. [^125I]-cAMP was measured on a TopCount scintillation counter (Perkin Elmer, MA, U.S.A).
# Individual agonist concentration-response curve data were fitted to the Hill equation, see formula below, using GraphPad Prism (Graphpad Software, La Jolla, Calif., U.S.A.), to provide estimates of agonist concentration needed to generate one-half maximal response (A50), and the maximal asymptote (α) and Hill slope (nH) parameters. In this equation, [A] is the agonist concentration and E is the measured effect:
# For display purposes the mean fitted parameter estimates were used to generate a single E/[A] curve shown superimposed on the mean experimental data. Potency estimates for agonists, pA50, are expressed as the negative logarithm of the midpoint of each curve and listed with their standard error of measurement (SEM). Logarithm base 10 of the agonist dose ratio (Log DR) values were calculated by subtraction of the test compound pA50 value from the corresponding h-SCP (SEQ ID NO:1) control pA50 value within the same assay batch. The SEM values of the Log DR values are given by the square root of the sum of the squared SEM values of the h-SCP (SEQ ID NO:1) control and test compound pA50 values.
# Human and rat peptides (see Table 10) were used on the stimulation of h-CRHR1 or h-CRHR2 transfected SK-N-MC cells in the cAMP flash plate assay. Peptides were incubated for 1 hr at 37° Celsius. Curves were calculated using non-linear regression sigmoidal concentration-response analysis calculation in GraphPad Prism. The so obtained pA50 values are shown in Table 11 in addition to literature values. […]
row,SMILES,Log DR
1,"CC[C@H](C)[C@H](NC(=O)[C@H](CCC(N)=O)NC(=O)[C@H](C)NC(=O)[C@H](CCSC)NC(=O)[C@H](CC(C)C)NC(=O)[C@H](Cc1c[nH]cn1)NC(=O)[C@H](C)NC(=O)[C@H](CC(N)=O)NC(=O)[C@H](C)NC(=O)[C@H](CSC1CC(=O)N(CC)C1=O)NC(=O)[C@H](C)NC(=O)[C@H](CCC(N)=O)NC(=O)[C@H](C)NC(=O)[C@H](CCCNC(=N)N)NC(=O)[C@H](CC(C)C)NC(=O)[C@H](CC(N)=O)NC(=O)[C@H](CCCCN)NC(=O)[C@H](C)NC(=O)[C@H](CCCCN)NC(=O)[C@H](C)NC(=O)[C@@H](NC(=O)[C@H](CC(N)=O)NC(=O)[C@H](Cc1ccccc1)NC(=O)[C@H](CC(C)C)NC(=O)[C@H](CC(C)C)NC(=O)[C@H](CC(N)=O)NC(=O)[C@H](CCSC)NC(=O)[C@@H](NC(=O)[C@H](CC(N)=O)NC(=O)[C@@H](NC(=O)[C@@H]1CCCN1C(=O)[C@@H](NC(=O)[C@H](CC(=O)O)NC(=O)[C@H](CC(C)C)NC(=O)[C@H](CO)NC(=O)[C@H](CC(C)C)NC(=O)[C@@H](NC(=O)[C@H](Cc1ccccc1)NC(=O)[C@H](CCCCN)NC(=O)[C@@H](N)[C@@H](C)O)[C@@H](C)O)C(C)C)[C@@H](C)O)[C@@H](C)CC)[C@@H](C)CC)C(N)=O (stereo partly shown) [SEQ ID NO: 46, TKFTLSLDVPTNIMNLLFNIAKAKNLRAQAC(-NES)ANAH LMAQI-NH2] (H-TKFTLSLDVPTNIMNLLFNIAKAKNLRAQAC(Succinimide(1-Et,3-yl))ANAHLMAQI-NH2; N-terminus assumed)",0.04
2,"CC[C@H](C)[C@H](NC(=O)[C@H](CCC(N)=O)NC(=O)[C@H](C)NC(=O)[C@H](CCSC)NC(=O)[C@H](CC(C)C)NC(=O)[C@H](Cc1c[nH]cn1)NC(=O)[C@H](C)NC(=O)[C@H](CC(N)=O)NC(=O)[C@H](C)NC(=O)[C@H](C)NC(=O)[C@H](C)NC(=O)[C@H](CCC(N)=O)NC(=O)[C@H](CSC1CC(=O)N(CC)C1=O)NC(=O)[C@H](CCCNC(=N)N)NC(=O)[C@H](CC(C)C)NC(=O)[C@H](CC(N)=O)NC(=O)[C@H](CCCCN)NC(=O)[C@H](C)NC(=O)[C@H](CCCCN)NC(=O)[C@H](C)NC(=O)[C@@H](NC(=O)[C@H](CC(N)=O)NC(=O)[C@H](Cc1ccccc1)NC(=O)[C@H](CC(C)C)NC(=O)[C@H](CC(C)C)NC(=O)[C@H](CC(N)=O)NC(=O)[C@H](CCSC)NC(=O)[C@@H](NC(=O)[C@H](CC(N)=O)NC(=O)[C@@H](NC(=O)[C@@H]1CCCN1C(=O)[C@@H](NC(=O)[C@H](CC(=O)O)NC(=O)[C@H](CC(C)C)NC(=O)[C@H](CO)NC(=O)[C@H](CC(C)C)NC(=O)[C@@H](NC(=O)[C@H](Cc1ccccc1)NC(=O)[C@H](CCCCN)NC(=O)[C@@H](N)[C@@H](C)O)[C@@H](C)O)C(C)C)[C@@H](C)O)[C@@H](C)CC)[C@@H](C)CC)C(N)=O (stereo partly shown) [SEQ ID NO: 47, TKFTLSLDVPTNIMNLLFNIAKAKNLRC(-NES)QA AANAH LMAQI-NH2] (H-TKFTLSLDVPTNIMNLLFNIAKAKNLRC(Succinimide(1-Et,3-yl))QAAANAHLMAQI-NH2; N-terminus assumed)",−0.03
3,"CC[C@H](C)[C@H](NC(=O)[C@H](CCC(N)=O)NC(=O)[C@H](C)NC(=O)[C@H](CCSC)NC(=O)[C@H](CC(C)C)NC(=O)[C@H](Cc1c[nH]cn1)NC(=O)[C@H](C)NC(=O)[C@H](CC(N)=O)NC(=O)[C@H](C)NC(=O)[C@H](C)NC(=O)[C@H](C)NC(=O)[C@H](CCC(N)=O)NC(=O)[C@H](C)NC(=O)[C@H](CCCNC(=N)N)NC(=O)[C@H](CSC1CC(=O)N(CC)C1=O)NC(=O)[C@H](CC(N)=O)NC(=O)[C@H](CCCCN)NC(=O)[C@H](C)NC(=O)[C@H](CCCCN)NC(=O)[C@H](C)NC(=O)[C@@H](NC(=O)[C@H](CC(N)=O)NC(=O)[C@H](Cc1ccccc1)NC(=O)[C@H](CC(C)C)NC(=O)[C@H](CC(C)C)NC(=O)[C@H](CC(N)=O)NC(=O)[C@H](CCSC)NC(=O)[C@@H](NC(=O)[C@H](CC(N)=O)NC(=O)[C@@H](NC(=O)[C@@H]1CCCN1C(=O)[C@@H](NC(=O)[C@H](CC(=O)O)NC(=O)[C@H](CC(C)C)NC(=O)[C@H](CO)NC(=O)[C@H](CC(C)C)NC(=O)[C@@H](NC(=O)[C@H](Cc1ccccc1)NC(=O)[C@H](CCCCN)NC(=O)[C@@H](N)[C@@H](C)O)[C@@H](C)O)C(C)C)[C@@H](C)O)[C@@H](C)CC)[C@@H](C)CC)C(N)=O (stereo partly shown) [SEQ ID NO: 48, TKFTLSLDVPTNIMNLLFNIAKAKNC(-NES)RAQA AANAH LMAQI-NH2] (H-TKFTLSLDVPTNIMNLLFNIAKAKNC(Succinimide(1-Et,3-yl))RAQAAANAHLMAQI-NH2; N-terminus assumed)",0.03
4,"CC[C@H](C)[C@H](NC(=O)[C@H](CCC(N)=O)NC(=O)[C@H](C)NC(=O)[C@H](CCSC)NC(=O)[C@H](CC(C)C)NC(=O)[C@H](Cc1c[nH]cn1)NC(=O)[C@H](C)NC(=O)[C@H](CC(N)=O)NC(=O)[C@H](C)NC(=O)[C@H](C)NC(=O)[C@H](C)NC(=O)[C@H](CCC(N)=O)NC(=O)[C@H](C)NC(=O)[C@H](CCCNC(=N)N)NC(=O)[C@H](CC(C)C)NC(=O)[C@H](CSC1CC(=O)N(CC)C1=O)NC(=O)[C@H](CCCCN)NC(=O)[C@H](C)NC(=O)[C@H](CCCCN)NC(=O)[C@H](C)NC(=O)[C@@H](NC(=O)[C@H](CC(N)=O)NC(=O)[C@H](Cc1ccccc1)NC(=O)[C@H](CC(C)C)NC(=O)[C@H](CC(C)C)NC(=O)[C@H](CC(N)=O)NC(=O)[C@H](CCSC)NC(=O)[C@@H](NC(=O)[C@H](CC(N)=O)NC(=O)[C@@H](NC(=O)[C@@H]1CCCN1C(=O)[C@@H](NC(=O)[C@H](CC(=O)O)NC(=O)[C@H](CC(C)C)NC(=O)[C@H](CO)NC(=O)[C@H](CC(C)C)NC(=O)[C@@H](NC(=O)[C@H](Cc1ccccc1)NC(=O)[C@H](CCCCN)NC(=O)[C@@H](N)[C@@H](C)O)[C@@H](C)O)C(C)C)[C@@H](C)O)[C@@H](C)CC)[C@@H](C)CC)C(N)=O (stereo partly shown) [SEQ ID NO: 49, TKFTLSLDVPTNIMNLLFNIAKAKC(-NES) LRAQA AANAH LMAQI-NH2] (H-TKFTLSLDVPTNIMNLLFNIAKAKC(Succinimide(1-Et,3-yl))LRAQAAANAHLMAQI-NH2; N-terminus assumed)",0.11
